These results are taken from US6348190B1, “Pharmaceutical compositions with antimicrobial activity” (Richter Gedeon Vegyeszeti Gyar Rt., priority 1996, dated 2002).

What is called MIC is the lowest concentration found to suppress growth. Low values mean a more susceptible organism, high ones a less susceptible organism.

In assay [1] the test system is Pseudomonas aeruginosa. Put plainly: Third series: effect of solutions of various concentrations on Pseudomonas aeruginosa. It counts as cell-based. As to the method:
(§1) Zinc and sodium hyaluronate solutions of […] (obtained by diluting solutions of 0.5% prepared according to Examples 1 and 2) were artificially infected by the identical germ count of various test organisms and the changing of the number of germs was taken against time. The number of germs was determined in a point of time by plating method. The evaluation was visually carried out at moulds and by using an automated colony counter at bacteria and fungi.
Due to the ophthalmological importance of Pseudomonas aeruginosa, the effects of zinc hyaluronate solutions of various concentrations on Pseudomonas aeruginosa were studied in comparison to sodium hyaluronate solutions of the same concentrations.

Assay [2] concerns Salmonella. Put plainly: Fifth series: MIC and CID by serial dilution. The settings on record: serial dilution from 0.2% solution. The format is cell-based. The method, then:
(§2) The antibacterial effect of zinc hyaluronate associate can be characterized by the following values of the minimum inhibitory concentration (MIC) and microbicidal concentration (CID) in comparison to the corresponding values of sodium hyaluronate.
(§3) MIC and CID values were determined by using solutions of 0.2% concentration. The determinations were conducted in a known way: a serial dilution was prepared from the substances to be tested and these solutions were artificially infected by the corresponding dilutions of the selected test organisms. After incubation at a suitable temperature for an appropriate time, the concentration series was visually evaluated and the minimum concentration was determined, which inhibited the growth of microorganisms (MIC value), or induced the death of the microorganisms (CID value).

Assay [3] deals with Streptococcus sp. Put plainly: Fifth series: MIC and CID by serial dilution. It counts as cell-based. The settings on record: serial dilution from 0.2% solution. As to the method: as §2, §3
Assay [4] concerns Escherichia coli. Briefly: Fifth series: MIC and CID by serial dilution. The format is cell-based. The settings on record: serial dilution from 0.2% solution. The method, then: as §2, §3
For assay [5], the system named is Helicobacter pylori strain 822/96. Briefly: Eighth series: MIC on Helicobacter pylori, agar with 10% bovine blood. It counts as cell-based. As to the method:
These investigations were carried out by using 1.0 weight/vol. % zinc hyaluronate solution on Helicobacter pylori strains cultivated from the gastric is biopsy samples of patients suffering from various ulcers. An 1% solution of De-Nol (colloidal bismuth subcitrate) was used as reference substance. Agar culture medium (nutrient medium) supplemented with 10% of bovine blood was used for the investigations. Plates without compound to be tested were used as controls. The inoculated plates were incubated for 3 to 5 days at 37° C. in a gaseous environment containing 5% of oxygen and 7 to 8% of carbon dioxide. The value of minimum inhibitory concentration (MIC) was considered to be the minimum concentration of substances totally inhibiting the propagation of bacteria well-growing on the control plates.

Assay [6] concerns Salmonella sp. Briefly: Second series: number of germs against prolonged time in 0.1% solutions. It counts as cell-based. The settings on record: 0.1% solution; for number of test organisms: Salmonella sp. The method, then:
as §1
(§4) The effects of 0.1% zinc hyaluronate and sodium hyaluronate solutions, respectively on three distinguished test organisms are illustrated in Table 3.

Assay [7] has as its system Staphylococcus aureus. Described as above. It counts as cell-based. The note with it: 0.1% solution; for number of test organisms: Staphylococcus aureus. The method, then: as §1, §4
Assay [8] deals with Pseudomonas aeruginosa. Described as above. It counts as cell-based. The note with it: 0.1% solution. The method, then: as §1, §4
In assay [9] the test system is Staphylococcus areus. Briefly: Fifth series: MIC and CID by serial dilution. It counts as cell-based, Staphylococcus aureus. The settings on record: serial dilution from 0.2% solution. The method, then:
as §2, §3

Assay [10] relates to the bacteria tested. Put plainly: Seventh series: sterility examination after termination of the 72 hours trial. The format is cell-based. The settings on record: sterility examination after the 72 hours trial. The source says:
It can be observed that a nearly immediate effect occurs after inoculation.

On to zinc hyaluronate, for which the “number of test organisms” value was 5.5 × 10^5 Test-organism /ml in assay [1] (0.1% solution, 0 hr); 5.0 × 10^5 Test-organism /ml in assay [1] (0.1% solution, 24 hrs); 2.0 × 10^3 Test-organism /ml in [1] (0.1% solution, 48 hrs); under 100 Test-organism /ml in assay [1] (0.1% solution, 72 hrs); 8.0 × 10^5 Test-organism /ml in assay [1] (0.2% solution, 0 hr); 5.5 × 10^5 Test-organism /ml in assay [1] (0.2% solution, 24 hrs). The “number of test organisms” value in [1] (0.2% solution, 48 hrs) was 3.0 × 10^3 Test-organism /ml; in assay [1] (0.2% solution, 72 hrs), under 100 Test-organism /ml; in assay [1] (0.5% solution, 0 hr) it was 1.0 × 10^6 Test-organism /ml; in assay [1] (0.5% solution, 24 hrs), 6.0 × 10^5 Test-organism /ml; in [1] (0.5% solution, 48 hrs) it was 3.0 × 10^3 Test-organism /ml; in assay [1] (0.5% solution, 72 hrs), under 100 Test-organism /ml. Moreover, the “number of test organisms” value is 2.0 × 10^6 Test-organism/ml in assay [6] (0 hr); 1.1 × 10^6 Test-organism/ml in assay [6] (24 hrs); 0 Test-organism/ml in assay [6] (48 hrs); 0 Test-organism/ml in assay [6] (72 hrs); 0 Test-organism/ml in assay [6] (96 hrs); 0 Test-organism/ml in [6] (168 hrs). Also, the “number of test organisms” value in [7] (0 hr) is recorded as 4.2 × 10^6 Test-organism/ml; in assay [7] (24 hrs), 4.6 × 10^6 Test-organism/ml; in assay [7] (48 hrs), 0 Test-organism/ml; in [7] (72 hrs), 0 Test-organism/ml; in assay [7] (96 hrs), 0 Test-organism/ml; in assay [7] (168 hrs) it was 0 Test-organism/ml. Also, the “number of test organisms” value in assay [8] (0 hr) is reported as 2.1 × 10^5 Test-organism/ml; in assay [8] (24 hrs) it was 2.4 × 10^4 Test-organism/ml; in [8] (48 hrs), 3.0 × 10^3 Test-organism/ml; in [8] (72 hrs), under 100 Test-organism/ml; in [8] (96 hrs), under 100 Test-organism/ml; in assay [8] (168 hrs), 0 Test-organism/ml. Besides, the “activity compared (in words)” value in assay [1] (Tables 4 and 5) is recorded as “obviously more effective than sodium hyaluronate solutions”. Moreover, the “CID (microbicidal concentration)” value was found to be 160 µg/mL in [2], 400 µg/mL in assay [3], 310 µg/mL in assay [4] and 120 µg/mL in assay [9]. In addition, the “MIC (minimum inhibitory concentration)” value in assay [2] worked out at 5.4 µg/mL; in [3], 96 µg/mL; in assay [4], 26 µg/mL; in assay [9], 40 µg/mL. Besides, in assay [5] (Helicobacter pylori), the “in vitro activity compared (in words)” value is reported as “comparable to the activity of De-Nol”. In addition, the minimum inhibitory concentration (MIC) in assay [5] (Helicobacter pylori strain 822/96, 3 to 5 days at 37° C., 5% oxygen, 7 to 8% carbon dioxide) stood at 500 µg/mL. In addition, the “time until count reduced to zero” value in [6] (Salmonella) and in assay [7] (Staphylococcus) was at most 48 h each time. For the same substance, the “onset of effect (in words)” value in assay [8] is on record as “significant decrease appeared only from the second day”.

For sodium hyaluronate [reference compound], the “number of test organisms” value in assay [6] (0 hr) is given as 8.0 × 10^6 Test-organism/ml; in [6] (24 hrs) it was 8.1 × 10^6 Test-organism/ml; in assay [6] (48 hrs), 1.2 × 10^6 Test-organism/ml; in [6] (72 hrs), 1.8 × 10^6 Test-organism/ml; in assay [7] (0 hr) it was 1.3 × 10^6 Test-organism/ml; in [7] (24 hrs), 4.1 × 10^6 Test-organism/ml. Also, the results for the “number of test organisms” value in assay [7] (48 hrs) and in [7] (72 hrs) were 6.2 × 10^6 Test-organism/ml and 8.4 × 10^6 Test-organism/ml, respectively. The “course of the count over the test time (in words)” value in assay [6] (Salmonella) and in [7] (Staphylococcus) was “remained practically within the same order” each time.

Take “cobalt(II) hyaluronate [cobalt hyaluronate]”: in assay [10], the “character of the effect (static or bactericidal)” value is recorded as “bactericidal effect”.
